Key:
Type in all cases: in vivo
Boophilus microplus [1] = experiment: Boophilus microplus test (injection); conditions: application rate 20 μg/animal, adult engorged females, after 7 days
In short: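 Compound dissolved and diluted in DMSO, then injected into the abdomen of adult engorged female ticks, five per dose. Ticks held in a climate chamber and fertile egg deposition monitored. Read at 7 days as %, 100% = all eggs infertile, 0% = all fertile.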

[2] = system: organic phosphorus agent- and carbamate agent-resistant Myzus persicae; experiment: Test for organic phosphorus agent- and carbamate agent-resistant Myzus persicae (spray, eggplant); conditions: 100 ppm active ingredient, 7 days
Description: If not mentioned otherwise, all sample solutions were prepared as described in Biological Test Example 1 and diluted to the appropriate (predetermined) concentrations.
About 30 to 50 of grown organic phosphorus agent- and carbamate agent-resistant Myzus persicae per seedling were inoculated to leaves at 2-leaf stage of eggplants grown in a pot of 6 cm in diameter, to which, after 1 day from the inoculation, the above prepared water-diluted solution of above active compound of the predetermined concentration was sufficiently sprayed with a spray gun. After the spraying, the pot was left in a greenhouse at room temperature for 7 days, followed by the pest-controlling rate calculated. The test was repeated twice.

Ctenocephalides felis = Ctenocephalides felis test (CTECFE), blood feeding; conditions: 48 h, read-out: activity (mortality in %)
Description: (§1) Solvent: dimethyl sulfoxide
To produce a suitable preparation of active compound, 10 mg of active compound are dissolved in 0.5 ml solvent, and the concentrate is diluted with cattle blood to the desired concentration. Approximately 10 to 15 adult unfed (Ctenocepahlides felis) are placed in flea chambers. The blood chamber, are sealed with parafilm on the bottom are filled with cattle blood supplied with compound solution and placed on top of the flea chamber, so that the fleas are able to suck the blood. The blood chamber is heated to 37° C. whereas the flea chamber is kept at room temperature. After 2 days mortality in % is determined 100% means that all the fleas have been killed; 0% means that none of the fleas have been killed.

Lucilia cuprina larvae = experiment: Lucilia cuprina test (larvae in minced horse meat); conditions: for mortality at 100 ppm: Lucilia cuprina, 48 h, read-out: activity (mortality in %); for activity (mortality in %): application rate 100 ppm, larvae, after 2 days
Description: as §1
To produce a suitable preparation of active compound, 10 mg of active compound are dissolved in 0.5 ml solvent, and the concentrate is diluted with water to the desired concentration. Approximately 20-30 (Lucilia cuprina larvae) are transferred into a test tube containing 1 cm^3 of minced horse meat and 0.5 ml aqueous dilution of test compound. After 2 days mortality in % is determined 100% means that all the larvae have been killed; 0% means that none of the larvae have been killed.

Musca domestica = Musca domestica test (sugar sponge); conditions: for activity (mortality in %): application rate 100 ppm, adults, after 2 days
Description: as §1
To produce a suitable preparation of active compound, 10 mg of active compound are dissolved in 0.5 ml solvent, and the concentrate is diluted with water to the desired concentration. Prior to the assay, a piece or kitchen sponge is soaked with a mixture of sugar and compound solution and placed into a container. 10 adults (Musca domestica) are placed into the container and closed with a perforated lid. After 2 days mortality in % is determined. 100% means that all the flies have been killed; 0% means that none of the flies have been killed.

Boophilus microplus [3] = experiment: Boophilus microplus (dip); conditions: application rate 100 ppm, adult engorged females, after 7 days
Description: as §1
To produce a suitable preparation of active compound, 10 mg of active compound are dissolved in 0.5 ml solvent, and the concentrate is diluted with water to the desired concentration. Eight to ten adult engorged female Boophilus microplus ticks are placed in perforated plastic beakers and immersed in aqueous compound solution for one minute. Ticks are transferred to a filter paper in a plastic tray. Egg deposition of fertile eggs is monitored after. After 7 days mortality in % is determined 100% means that all the ticks have been killed; 0% means that none of the ticks have been killed.

Amblyomma hebraeum = Amblyomma hebraeum test (AMBYHE), nymph immersion; conditions: for activity (mortality in %): application rate 100 ppm, nymphs, after 42 days
Description: as §1
To produce a suitable preparation of active compound, 10 mg of active compound are dissolved in 0.5 ml solvent, and the concentrate is diluted with water to the desired concentration. Nymphs of the tick Amblyomma hebraeum are placed in perforated plastic beakers and immersed in aqueous compound solution for one minute. Ticks are transferred to a filter paper in a Petri dish and incubated in a climate chamber for 42 days.
After 42 days mortality in % is determined 100% means that all the ticks have been killed; 0% means that none of the ticks have been killed.

| SMILES | activity (100% means that all eggs are infertile) (Boophilus microplus [1]) | activity (mortality in %) (Boophilus microplus [3]) | activity (mortality in %) (Musca domestica) | other results |
| --- | --- | --- | --- | --- |
| O=C(CC(F)(F)F)NCc1ccc(N2CCC(c3cc(C(F)(F)F)cc(C(F)(F)F)c3)(C(F)(F)F)C2)cc1Br (stereo not drawn) [1-314] | 100% |  |  | insecticidal rate (pest-controlling rate) [2]: 100% |
| O=C(NCc1ccc(N2CCC(c3cc(Cl)cc(Cl)c3)(C(F)(F)F)C2)cc1C(F)(F)F)c1ccc(Cl)nc1 (stereo not drawn) [1-198, 6-chloro-N-{4-[3-(3,5-dichlorophenyl)-3-(trifluoromethyl)-pyrrolidin-1-yl]-2-(trifluoromethyl)benzyl}pyridine-3-carboxyamide] | 100% |  |  | mortality at 100 ppm (Ctenocephalides felis): 90%; mortality at 100 ppm (Lucilia cuprina larvae): 100% |
| O=C(CC(F)(F)F)NCc1ccc(N2CCC(c3cc(C(F)(F)F)cc(C(F)(F)F)c3)(C(F)(F)F)C2)cc1Cl (stereo not drawn) [1-309] | 100% |  |  | insecticidal rate (pest-controlling rate) [2]: 100% |
| CCC(=O)NCc1sc(N2CCC(c3cc(Cl)c(Cl)c(Cl)c3)(C(F)(F)F)C2)nc1C(F)(F)F (stereo not drawn) [5-142, N-({2-[3-(3,4,5-trichlorophenyl)-3-(trifluoromethyl)pyrrolidin-1-yl]-4-(trifluoromethyl)-1,3-thiazol-5-yl}methyl)propanamide] | 100% |  |  | mortality at 100 ppm (Ctenocephalides felis): 100%; mortality at 100 ppm (Lucilia cuprina larvae): 100%; mortality at 100 ppm (Musca domestica; Musca domestica, 48 h, read-out: activity (mortality in %)): 100% |
| CSCCC(=O)NCc1ccc(N2CCC(c3cc(Cl)cc(Cl)c3)(C(F)(F)F)C2)cc1Cl (stereo not drawn) [1-467] | 100% | 90% |  | activity (mortality in %) (Amblyomma hebraeum): 90% |
| C#CCNC(=O)NCc1ccc(N2CCC(c3cc(Cl)cc(Cl)c3)(C(F)(F)F)C2)cc1C(F)(F)F (stereo not drawn) [1-231] | 100% |  | 95% |  |
| CCC(=O)NCc1ccc(N2CCC(c3cc(Cl)cc(C(F)(F)F)c3)(C(F)(F)F)C2)cc1C(F)(F)F (stereo not drawn) [1-356] |  |  |  | insecticidal rate (pest-controlling rate) [2]: 100% |
| CC(C)CC(=O)NCc1ccc(N2CCC(c3cc(Cl)cc(Cl)c3)(C(F)(F)F)C2)cc1Cl (stereo not drawn) [1-7] | 100% | 80% |  |  |
| CCSCC(=O)NCc1ccc(N2CCC(c3cc(Cl)cc(Cl)c3)(C(F)(F)F)C2)cc1C(F)(F)F (stereo not drawn) [1-499] | 100% |  | 90% |  |
| O=C(NCC(F)(F)F)c1sc(N2CCC(c3cc(Cl)c(Cl)c(Cl)c3)(C(F)(F)F)C2)nc1C(F)(F)F (stereo not drawn) [4-21] | 100% |  | 90% |  |
| O=C(NCc1ccc(N2CCC(c3cc(Cl)cc(Cl)c3)(C(F)(F)F)C2)cc1Cl)NCC(F)(F)F (stereo not drawn) [1-78] | 100% | 80% |  |  |
| O=C(NCc1ccc(N2CCC(c3cc(C(F)(F)F)cc(C(F)(F)F)c3)(C(F)(F)F)C2)cc1C(F)(F)F)NC1CC1 (stereo not drawn) [1-305] | 100% | 80% |  | activity (mortality in %) (Amblyomma hebraeum): 90% |
| O=C(CC(F)(F)F)NCc1sc(N2CCC(c3cc(Cl)cc(Cl)c3)(C(F)(F)F)C2)nc1C(F)(F)F (stereo not drawn) [5-22] | 100% |  | 95% |  |
| O=C(CC(F)(F)F)NCc1sc(N2CCC(c3cc(C(F)(F)F)cc(C(F)(F)F)c3)(C(F)(F)F)C2)nc1C(F)(F)F (stereo not drawn) [5-150] | 100% |  | 95% |  |
| O=C(Cn1cncn1)NCc1ccc(N2CCC(c3cc(Cl)cc(Cl)c3)(C(F)(F)F)C2)cc1C(F)(F)F (stereo not drawn) [1-558] | 100% | 80% |  |  |
| O=C(NCc1ccc(N2CCC(c3cc(Cl)cc(Cl)c3)(C(F)(F)F)C2)cc1C(F)(F)F)C(F)F (stereo not drawn) [1-164] | 100% | 95% |  |  |
| N#CCC(=O)NCc1ccc(N2CCC(c3cc(Cl)cc(Cl)c3)(C(F)(F)F)C2)cc1Cl (stereo not drawn) [1-39] | 100% |  | 90% |  |
| CCC(=O)NCc1cnc(N2CCC(c3cc(Cl)c(Cl)c(Cl)c3)(C(F)(F)F)C2)nc1C(F)(F)F (stereo not drawn) [3-142] | 100% |  |  | insecticidal rate (pest-controlling rate) [2]: 100% |
| CC=CC(=O)NCc1ccc(N2CCC(c3cc(Cl)cc(Cl)c3)(C(F)(F)F)C2)cc1C(F)(F)F (stereo not drawn) [1-174] | 100% | 80% |  |  |
| CCNC(=O)NCc1ccc(N2CCC(c3cc(C(F)(F)F)cc(C(F)(F)F)c3)(C(F)(F)F)C2)cc1C(F)(F)F (stereo not drawn) [1-302] | 100% | 90% |  |  |
| CCNC(=O)NCc1ccc(N2CCC(c3cc(Cl)cc(Cl)c3)(C(F)(F)F)C2)cc1Cl (stereo not drawn) [1-77] | 100% | 80% |  |  |
| CCC(=O)NCc1sc(N2CCC(c3cc(Cl)cc(Cl)c3)(C(F)(F)F)C2)nc1C(F)(F)F (stereo not drawn) [5-4] | 100% |  | 85% |  |
| CCCC(=O)NCc1ccc(N2CCC(c3cc(Cl)c(Cl)c(Cl)c3)(C(F)(F)F)C2)cc1C(F)(F)F (stereo not drawn) [1-328] |  |  |  | insecticidal rate (pest-controlling rate) [2]: 100% |
| O=C(CC(F)(F)F)NCc1ccc(N2CCC(c3cc(Cl)cc(Cl)c3)(C(F)(F)F)C2)cc1C(F)(F)F (stereo not drawn) [1-162] | 100% | 95% |  |  |
| CN(Cc1ccc(N2CCC(c3cc(Cl)cc(Cl)c3)(C(F)(F)F)C2)cc1Cl)C(=O)C1CC1 (stereo not drawn) [1-74] | 100% |  |  | activity (mortality in %) (Lucilia cuprina larvae): 90% |
| C=CCNC(=O)NCc1ccc(N2CCC(c3cc(Cl)cc(Cl)c3)(C(F)(F)F)C2)cc1Cl (stereo not drawn) [1-87] | 100% |  |  | activity (mortality in %) (Lucilia cuprina larvae): 80% |
| CNC(=O)NCc1ccc(N2CCC(c3cc(C(F)(F)F)cc(C(F)(F)F)c3)(C(F)(F)F)C2)cc1C(F)(F)F (stereo not drawn) [1-301] | 100% | 80% |  |  |
| O=C(NCCC(F)(F)F)NCc1ccc(N2CCC(c3cc(Cl)cc(Cl)c3)(C(F)(F)F)C2)cc1C(F)(F)F (stereo not drawn) [1-238] | 100% |  | 90% | activity (mortality in %) (Amblyomma hebraeum): 85% |
| CCNC(=O)NCc1ccc(N2CCC(c3cc(Cl)cc(Cl)c3)(C(F)(F)F)C2)cc1C(F)(F)F (stereo not drawn) [1-220] | 100% |  | 90% |  |
| CCC(=O)NCc1ccc(N2CCC(c3cc(Cl)cc(Cl)c3)(C(F)(F)F)C2)cc1C(F)(F)F (stereo not drawn) [1-143] | 100% |  |  | Activity at 0.8 ppm (Amblyomma hebraeum; 0.8 ppm, comparison with WO2008/128711): 100%; Activity at 4 ppm (Amblyomma hebraeum; 4 ppm, comparison with WO2008/128711): 100%; insecticidal rate (pest-controlling rate) [2]: 100% |
